We go through 16 molecules from patent US20220144815A1, “1,3,4-OXADIAZOLES AND THEIR DERIVATIVES AS NEW ANTIFUNGAL AGENTS” (Bayer Aktiengesellschaft, priority 2018, published 2022).

Read-outs that look alike come from different tables or passages of the source.

Data set [1] can be described thus: Log P by HPLC on reversed phase columns, method [a] (EEC directive 79/831 Annex V.A8). As to conditions: reversed phase HPLC column. The class given is physicochemical. Put shortly:
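Log P calibrated with C3–C16 straight-chain alkan-2-ones of known Log P, interpolating linearly between retention times. Method per EEC 79/831 Annex V.A8: reversed-phase LC-UV in the acidic range, water/0.1% formic acid and acetonitrile gradient from 10% to 95% acetonitrile.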

For a further data set, the system named is Puccinia recondita. In words: Example D: in vivo preventive test (brown rust on wheat). As to conditions: 264 h, 500 ppm of tested compound, preventive spray, evaluated 11 days after inoculation, read-out: efficacy. The method, then: Solvent: 5% by volume of dimethyl sulfoxide • 10% by volume of acetone Emulsifier: 1 μL of Tween® 80 per mg of active ingredient The tested compounds were made soluble and homogenized in a mixture of dimethyl sulfoxide/acetone/Tween® 80 and then diluted in water to the desired concentration. The young plants of wheat were treated by spraying the tested compound prepared as described above. Control plants were treated only with an aqueous solution of acetone/dimethyl sulfoxide/Tween® 80. After 24 hours, the plants were contaminated by spraying the leaves with an aqueous suspension of Puccinia recondita spores. The contaminated wheat plants were incubated for 24 hours at 20° C. and at 100% relative humidity and then for 10 days at 20° C. and at 70-80% relative humidity. The test was evaluated 11 days after the inoculation. 0% means an efficacy which corresponds to that of the control plants while an efficacy of 100% means that no disease was observed.

Another data set relates to Alternaria brassicae. Nature of the data set: Example E: in vivo preventive test (cabbage). As to conditions: 144 h, 500 ppm of tested compound, preventive spray, evaluated 6 days after inoculation, read-out: efficacy. The method, then: Solvent: 5% by volume of dimethyl sulfoxide • 10% by volume of acetone Emulsifier: 1 μL of Tween® 80 per mg of active ingredient The tested compounds were made soluble and homogenized in a mixture of Dimethyl sulfoxide/Acetone/Tween® 80 and then diluted in water to the desired concentration. The young plants of cabbage were treated by spraying the tested compound prepared as described above. Control plants were treated only with an aqueous solution of Acetone/Dimethyl sulfoxide/Tween® 80. After 24 hours, the plants were contaminated by spraying the leaves with an aqueous suspension of Alternaria brassicae spores. The contaminated cabbage plants were incubated for 6 days at 20° C. and at 100% relative humidity. The test was evaluated 6 days after the inoculation. 0% means an efficacy which corresponds to that of the control plants while an efficacy of 100% means that no disease was observed.

The next data set concerns Phakopsora pachyrhizi. Nature of the data set: Example F: in vivo preventive test (soybeans), DMSO/acetone/Tween 80. The note with it: 288 h, 500 ppm of tested compound, preventive spray, soybean, evaluated 12 days after inoculation, read-out: efficacy. The method, then:
Solvent: 5% by volume of dimethyl sulfoxide • 10% by volume of acetone
Emulsifier: 1 μL of Tween® 80 per mg of active ingredient
The tested compounds were made soluble and homogenized in a mixture of dimethyl sulfoxide/acetone/Tween® 80 and then diluted in water to the desired concentration.
The young plants of wheat were treated by spraying the tested compound prepared as described above. Control plants were treated only with an aqueous solution of acetone/dimethyl sulfoxide/Tween® 80.
After 24 hours, the plants were contaminated by spraying the leaves with an aqueous suspension of Phakospora pachyrhizi spores. The contaminated soybean plants were incubated for 24 hours at 24° C. and at 100% relative humidity and then for 11 days at 24° C. and at 70-80% relative humidity.
The test was evaluated 12 days after the inoculation. 0% means an efficacy which corresponds to that of the control plants while an efficacy of 100% means that no disease was observed.

For data set [2], the system named is Colletotrichum lindemuthianum. In words: Example B: in vitro cell test, spore germination and mycelium growth in liquid culture. The class given is cell-based. The note with it: 144 h, 20 ppm of tested compound, 6 days incubation, read-out: efficacy (inhibition of fungal growth). The method, boiled down: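 Compounds in DMSO (final ≤1%) added to glucose/peptone/yeast extract liquid medium containing C. lindemuthianum spores. After 6 days incubation, mycelium growth measured spectrometrically; inhibition calculated from absorbance versus compound-free control wells.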

The mark [3] stands for this setting: log P determined according to method [a] (HPLC on reversed phase columns), read-out: logP.
Where [4] appears, read: method [a], HPLC on reversed phase columns, read-out: logP.

Regarding `COc1cccc(C2(Nc3ncc(-c4nnc(C(F)F)o4)cn3)CC2)c1` [I.156, 5-[5-(difluoromethyl)-1,3,4-oxadiazol-2-yl]-N-[1-(3-methoxyphenyl)cyclopropyl]pyrimidin-2-amine], the chromatographic logP in data set [1] (setting [3]) turned out to be 2.62. The pest or weed control at 500 µg/mL in the data set on Puccinia recondita, in the data set with Alternaria brassicae and in the data set with Phakopsora pachyrhizi was 90 to 100% in each case.

Usually inhibition of growth stands for the change of the read-out against control, counted positive when it falls. Regarding `COc1ccc(C2(Nc3ncc(-c4nnc(C(F)F)o4)cn3)CC2)cc1` [I.157, 5-[5-(difluoromethyl)-1,3,4-oxadiazol-2-yl]-N-[1-(4-methoxyphenyl)cyclopropyl]pyrimidin-2-amine], in data set [1] (setting [3]), the chromatographic logP came out at 2.62. Besides, the inhibition of growth at 20 µg/mL in data set [2] was 80 to 89%. Also, the pest or weed control at 500 µg/mL fell in the range of 90 to 100% with Puccinia recondita, 70 to 79% in the data set on Alternaria brassicae and 90 to 100% with Phakopsora pachyrhizi.

On to `FC(F)c1nnc(-c2cnc(NC3(c4ccccn4)CCC3)nc2)o1` [I.137, 5-[5-(difluoromethyl)-1,3,4-oxadiazol-2-yl]-N-[1-(pyridin-2-yl)cyclobutyl]pyrimidin-2-amine], for which, in data set [1] (setting [3]), the chromatographic logP is 1.2. Further, the pest or weed control at 500 µg/mL in the data set on Puccinia recondita, in the data set on Alternaria brassicae and in the data set with Phakopsora pachyrhizi was 90 to 100% throughout.

`FC(F)c1nnc(-c2cnc(NC3(c4cccc(Cl)c4)CCC3)nc2)o1` [I.175, N-[1-(3-chlorophenyl)cyclobutyl]-5-[5-(difluoromethyl)-1,3,4-oxadiazol-2-yl]pyrimidin-2-amine]: in data set [1] (setting [4]), the chromatographic logP worked out at 3.67. Also, the inhibition of growth at 20 µg/mL in data set [2] is 80 to 89%. Besides, the pest or weed control at 500 µg/mL lay within 90 to 100% in the data set with Puccinia recondita and 70 to 79% in the data set on Alternaria brassicae.

Consider `Cc1ccccc1C1(Nc2ncc(-c3nnc(C(F)F)o3)cn2)CC1` [I.132, 5-[5-(difluoromethyl)-1,3,4-oxadiazol-2-yl]-N-[1-(2-methylphenyl)cyclopropyl]pyrimidin-2-amine], for which the chromatographic logP in data set [1] (setting [3]) was determined as 3.23. In data set [2], the inhibition of growth at 20 µg/mL fell in the range of 70 to 79%. In addition, the figures for the pest or weed control at 500 µg/mL in the data set with Puccinia recondita and in the data set on Phakopsora pachyrhizi were 80 to 89% and 90 to 100%, respectively.

Regarding `FC(F)c1nnc(-c2cnc(Nc3ccccc3-c3ccccc3)nc2)o1` [I.166, N-([biphenyl]-2-yl)-5-[5-(difluoromethyl)-1,3,4-oxadiazol-2-yl]pyrimidin-2-amine], the chromatographic logP in data set [1] (setting [3]) was 3.37. The inhibition of growth at 20 µg/mL in data set [2] lay in the range of 80 to 89%. The pest or weed control at 500 µg/mL in the data set on Puccinia recondita was in the range of 90 to 100%; in the data set on Alternaria brassicae it was 70 to 79%; in the data set with Phakopsora pachyrhizi it was 90 to 100%.

`Fc1cccc(F)c1C1(Nc2ncc(-c3nnc(C(F)F)o3)cn2)CCC1` [I.177, 5-[5-(difluoromethyl)-1,3,4-oxadiazol-2-yl]-N-[1-(2,6-difluorophenyl)cyclobutyl]pyrimidin-2-amine]: the chromatographic logP in data set [1] (setting [4]) worked out at 3.5. Moreover, the inhibition of growth at 20 µg/mL in data set [2] was in the range of 90 to 100%. The pest or weed control at 500 µg/mL lay in the range of 90 to 100% in the data set with Puccinia recondita, 80 to 89% with Alternaria brassicae and 90 to 100% in the data set with Phakopsora pachyrhizi.

For the molecule `CCC(Nc1ncc(-c2nnc(C(F)F)o2)cn1)c1ccccc1` (racemic) [I.122, 5-[5-(difluoromethyl)-1,3,4-oxadiazol-2-yl]-N-[(1RS)-1-phenylpropyl]pyrimidin-2-amine], the chromatographic logP in data set [1] (setting [3]) was 3.16. In data set [2], the inhibition of growth at 20 µg/mL lay in the range of 90 to 100%. Also, the pest or weed control at 500 µg/mL in the data set on Puccinia recondita and in the data set on Phakopsora pachyrhizi was 90 to 100% each time.

As to `CC(C)(Nc1ncc(-c2nnc(C(F)F)o2)cn1)c1ccc(F)cc1` [I.150, 5-[5-(difluoromethyl)-1,3,4-oxadiazol-2-yl]-N-[2-(4-fluorophenyl)propan-2-yl]pyrimidin-2-amine], in data set [1] (Method A: LC-UV, acidic range, 0.1% formic acid in water and acetonitrile, read-out: Log P), the chromatographic logP came to 3.26. In data set [2], the inhibition of growth at 20 µg/mL was in the range of 80 to 89%. Moreover, the results for the pest or weed control at 500 µg/mL with Puccinia recondita, in the data set with Alternaria brassicae and in the data set with Phakopsora pachyrhizi were 90 to 100%, 70 to 79% and 90 to 100%, respectively.

With `Fc1cccc(C2(Nc3ncc(-c4nnc(C(F)F)o4)cn3)CC2)c1` [I.145, 5-[5-(difluoromethyl)-1,3,4-oxadiazol-2-yl]-N-[1-(3-fluorophenyl)cyclopropyl]pyrimidin-2-amine], the chromatographic logP in data set [1] (setting [3]) was 2.72. Also, the inhibition of growth at 20 µg/mL in data set [2] lay within 80 to 89%. Moreover, the pest or weed control at 500 µg/mL with Puccinia recondita and in the data set with Phakopsora pachyrhizi was 90 to 100% in each case.

Take `C#CC(Nc1ncc(-c2nnc(C(F)F)o2)cn1)c1ccccc1` (racemic) [I.118, 5-[5-(difluoromethyl)-1,3,4-oxadiazol-2-yl]-N-[(1RS)-1-phenylprop-2-yn-1-yl]pyrimidin-2-amine]: in data set [1] (setting [3]), the chromatographic logP stood at 2.86. In data set [2], the inhibition of growth at 20 µg/mL lay within 90 to 100%. The pest or weed control at 500 µg/mL in the data set on Puccinia recondita was 80 to 89%; with Phakopsora pachyrhizi, 90 to 100%.

As for `Fc1ccccc1C1(Nc2ncc(-c3nnc(C(F)(F)F)o3)cn2)CC1` [I.165, N-[1-(2-fluorophenyl)cyclopropyl]-5-[5-(trifluoromethyl)-1,3,4-oxadiazol-2-yl]pyrimidin-2-amine], the chromatographic logP in data set [1] (setting [3]) was 3.47. Besides, in data set [2], the inhibition of growth at 20 µg/mL is 80 to 89%. Also, the pest or weed control at 500 µg/mL in the data set on Puccinia recondita and in the data set with Phakopsora pachyrhizi was 90 to 100% throughout.

For `FC(F)c1nnc(-c2cnc(OC3(c4ccccc4)CC3)nc2)o1` [I.120, 5-[5-(difluoromethyl)-1,3,4-oxadiazol-2-yl]-2-[(1-phenylcyclopropyl)oxy]pyrimidine], the chromatographic logP in data set [1] (setting [3]) was determined as 2.95. Further, the inhibition of growth at 20 µg/mL in data set [2] is 70 to 79%. The pest or weed control at 500 µg/mL with Puccinia recondita lay in the range of 70 to 79%; with Phakopsora pachyrhizi it was 90 to 100%.

For `Cc1ccc(C2(Nc3ncc(-c4nnc(C(F)F)o4)cn3)CC2)cc1` [I.133, 5-[5-(difluoromethyl)-1,3,4-oxadiazol-2-yl]-N-[1-(4-methylphenyl)cyclopropyl]pyrimidin-2-amine], in data set [1] (setting [3]), the chromatographic logP is 3. Further, the values for the pest or weed control at 500 µg/mL in the data set on Puccinia recondita, with Alternaria brassicae and in the data set on Phakopsora pachyrhizi were 90 to 100%, 70 to 79% and 90 to 100%, respectively.

For `FC(F)c1nnc(-c2cnc(NC(c3ccccc3)C3CC3)nc2)o1` (racemic) [I.136, N—[(RS)-cyclopropyl(phenyl)methyl]-5-[5-(difluoromethyl)-1,3,4-oxadiazol-2-yl]pyrimidin-2-amine], the chromatographic logP in data set [1] (setting [3]) was 3.14. In data set [2], the inhibition of growth at 20 µg/mL lay in the range of 80 to 89%. Besides, the pest or weed control at 500 µg/mL was in the range of 80 to 89% with Puccinia recondita and 90 to 100% in the data set on Phakopsora pachyrhizi.

As for `CC(Nc1ncc(-c2nnc(C(F)F)o2)cn1)c1ccc(F)cc1` (racemic) [I.125, 5-[5-(difluoromethyl)-1,3,4-oxadiazol-2-yl]-N-[(1RS)-1-(4-fluorophenyl)ethyl]pyrimidin-2-amine], the chromatographic logP in data set [1] (setting [3]) came out at 2.89. For the same molecule, the inhibition of growth at 20 µg/mL in data set [2] lay within 80 to 89%. In addition, the pest or weed control at 500 µg/mL in the data set with Puccinia recondita and with Phakopsora pachyrhizi was 90 to 100% in each case.
